Where two headings read alike, the source gives them in different places.
Assays:
Format in all cases: in vivo, human
burns = tested on: burns
Description: (§1) The method of the invention has been carried out with respect to a number of skin disorders. The patients were treated with one of two peptides, each at a concentration of 50 μg/gr cream (unless otherwise indicated):
(§2) The cream was manufactured by Amiga LTD, Israel, and contains the following components:
1. A person was lightly burned on the back of the hand which touched a very hot object. ZEP4 was immediately applied to the burn site. • Results: the burn mark disappeared within 1 hour. No additional treatments were necessary.
2. A person was severely burned by boiling water on the palm of the hand. […] At the end of 2 weeks there was no sign of the burn, nor thereafter.
3. person two was lightly burned on their finger from boiling oil. […] No further treatments were necessary.
5. A person was burnt on their hand from an oven. […] The burn took on a light brown color.
6. 4 light burn cases, three from touching a hot surface and one from a chemical substance in a laboratory, were treated with ZEP3.
8. person three with irritated skin on the hand due to the rubbing of a watch band. The irritated skin came into contact with a chemical substance (used as a disinfectant). A severe redness developed similar to a burn, and a strong itching feeing. […] D. Oral Cavity

bee stings = tested on: bee stings
Description: as §1, §2
3. A person was stung by a bee.
4. person four was stung by bees on both hands.
5. person three was stung by bees on both hands.

skin infection = details: person two, wrist infection, allergic reaction to watch band; 50 μg/gr cream several times a day
Description: as §1, §2
1. person two suffered from an infection on the wrist of the left hand, apparently an allergic reaction to a watch band. Large spots appeared around the wrist accompanied by redness.
2. person three suffered from an infection on the wrist of the left hand, apparently an allergic reaction to a watch band. Large spots appeared around the wrist accompanied by redness and itching.
3. 2 cases of infected skin wounds.

rash = tested on: rash
Description: as §1, §2
1. A rash appeared on the wrist of person two, apparently as an allergic response to a watch band. Large red spots appeared around the wrist.
2. A rash appeared in the underarm area of a person, apparently due to sweat and rubbing of the bra strap. […] F. Psoriasis

flea bites = tested on: flea bites
Description: as §1, §2
1. person two was bitten by fleas on various occasions, resulting in an itching sensation. […] The ointment was reapplied after 6 hours.
2. person one who is very sensitive to flea bites was bitten by fleas, resulting in an itching sensation. […] The ointment should be reapplied after 12 hours.

psoriasis = details: person
Description: as §1, §2
1. A person suffered from intermittent psoriasis on their head over many years. […] The patient believes that the frequency of the outbreaks has been reduced.
2. A person suffered from psoriasis on the hands. […] The patient believes that a 20% improvement has occurred over 2 weeks.
3. A person suffered from psoriasis in the anus.
4. A person suffered from extensive psoriasis at various locations. ZEP3 (500 μg/gr cream) was applied to the sores as needed. • Results: the itching ceased within 12 hours.
5. A person suffered from chronic psoriasis on the elbow.
6. A person suffered from severe psoriasis at various locations. They regularly went for treatments to the Dead Sea in Israel.

Herpes zoster = details: person, lesions with skin edema on mid back; 50 μg/gr cream, applied 4-5 times
Description: as §1, §2
1. A person was diagnosed with Herpes zoster (shingles), which appeared as a painful, circumferential rash in the abdominal area. The patient had been on antibiotics, with no improvement.
2. A person was diagnosed with Herpes zoster, which appeared as painful lesions with skin edema on the mid back area, appearing several times a year. […] Decrease in the skin rash and the degree of the sore and swelling and a shortening of the time of recovery (healing).

mosquito bites = details: two males and four females, 30-57 years old; (500 μg/gr cream) as needed
Description: as §1, §2
8. males and four females suffered from mosquito bites. […]
9. 3 subjects suffering from mosquito bites were treated with ZEP3.

radiation burns = tested on: radiation burns
Description: as §1, §2
4. A person with breast cancer received radiation treatment. The person suffered from radiation burns in a large skin area with blisters and open wounds. ZEP4 was applied directly to the wounds over a period of 12 days, 1-2 times per day. • Results: an immediate (˜1 minute) ease in the itching and burning sensation.
7. person two with breast cancer after mastectomy received radiation treatment. The person suffered from severe radiation burns.

Herpes simplex = tested on: Herpes simplex
Description: as §1, §2
5. A person suffered for many years from Herpes simplex on the neck, with no relief from commercial remedies. ZEP3 was applied topically once a day to the lesions. • Results: relief in itching and skin rash within 10-20 min.
6. person two was diagnosed with Herpes simplex.
7. person one was diagnosed with Herpes simplex.
8. person four suffered from Herpes simplex from childhood.
9. A person suffered from Herpes simplex lesions on the lips and face. […] 1-2 applications cause the lesions to disappear.
10. A person suffered from Herpes simplex on the lips, mainly when under pressure. […] The blisters disappeared after 24 hours.
11. A person suffered from Herpes simplex on the lips. ZEP3 (500 μg/gr cream) was topically applied several times during the day on the wound. • Results: the person felt relief after several minutes. The itching and redness lessened immediately and the wound disappeared after 36 hours.
12. 7 subjects suffering from Herpes simplex were treated with ZEP3.
13. A person suffered from Herpes simplex lesions on the lips.
14. A person has a festering Herpes simplex lesion. Generally, 10 days are required for recuperation.
15. A person suffered intermittingly from Herpes simplex on the lips, with blisters.

itching = details: person
Description: as §1, §2
1. A person suffered from a strong itching sensation on the skin all over the body for no apparent reason.
2. A person suffered from a red rash and itching sensation on their breast. ZEP4 (500 μg/gr cream) was applied twice in a period of 2 hours. • Results: relief from itching within 10 minutes.
3. A person suffered from a strong itching sensation in the lower limbs which sometimes spread to the abdomen and back. […] I. Skin Infection

[1] = person, severe boiling water burn on palm, 50 μg/gr cream immediately and every day for 2 weeks
[2] = person, breast cancer radiation burns with blisters and open wounds, 50 μg/gr cream 1-2 times per day for 12 days
[3] = person one, 50 μg/gr cream several times
[4] = person two, 50 μg/gr cream several times
[5] = person, lips, 50 μg/gr cream several times a day at onset of pricking sensation
[6] = red rash and itching on breast, 500 μg/gr cream twice in 2 hours

With pGLU-ASN-TRP-THR [ZEP4] the clinical outcome (burns; person three, irritated skin on hand contacted a disinfectant, burn-like redness and itching, ZEP4 and ZEP3 each 500 μg/gr cream) was “immediate relief from the redness and itching”, the clinical outcome (burns; person two, light burn on finger from boiling oil, 50 μg/gr cream applied immediately) was “the swelling went down until it completely disappeared” and the clinical outcome (burns; person, hand burnt from an oven, 50 μg/gr cream applied immediately) was “the pain and redness immediately subsided”. The “time until burn mark disappeared” value (burns; person, light burn on back of hand from hot object, 50 μg/gr cream applied immediately) was ≤ 1 h, the clinical outcome (burns; [1]) was “blisters began to appear and then shortly disappeared” and the “time until no sign of the burn” value (burns; [1]) was 2 weeks. The clinical outcome (bee stings; person four, both hands stung, 1000 μg/gr cream once to one hand, about 10 minutes after sting) was “the swelling shrunk and the redness decreased to an identical degree on each hand”, the clinical outcome (bee stings; person three, both hands stung, 1000 μg/gr cream once to one hand, about 10 minutes after sting) was “the swelling shrunk and the redness decreased to an identical degree on each hand” and the clinical outcome (bee stings; person, 50 μg/gr cream, one application 24 hours after the sting) was “immediate reduction in the redness, swelling and pain”. The clinical outcome (skin infection) was “a decrease in redness and the size of the spots”, the clinical outcome (rash; person two, wrist rash, allergic response to watch band, 50 μg/gr cream several times a day) was “a reduction in the redness and in the diameter of the spots” and the clinical outcome (rash; person, underarm rash, 50 μg/gr cream twice a day for three days) was “the redness began to decrease shortly after treatment, and after a few days completely disappeared”. The clinical outcome (flea bites; person one very sensitive to flea bites, 50 μg/gr cream) was “almost immediate cessation of the itching sensation”, the clinical outcome (flea bites; person two, 50 μg/gr cream several times to bite location) was “immediate cessation of the itching sensation” and the “time until relief is felt” value (psoriasis; psoriasis in the anus, (500 μg/gr cream) once a day) was 4 days. For the same substance, the clinical outcome (psoriasis; psoriasis in the anus, (500 μg/gr cream) once a day, stopped several days, repeated for 4 days) was “the psoriasis disappeared”, the clinical outcome (psoriasis; psoriasis on hands, 500 μg/gr cream once a day) was “feels relief; the skin is pleasant feeling and not itchy” and the “improvement as believed by the patient” value (psoriasis; psoriasis on hands, 500 μg/gr cream once a day, over 2 weeks) was 20%. The clinical outcome (psoriasis; severe psoriasis at various locations, 500 μg/gr cream) was “the itching ceased and the normal skin appearance returned”, the clinical outcome (Herpes zoster) was “reduced skin edema and an increase in the intervals between attacks. Decrease in the skin rash and the degree of the sore and swelling and a shortening of the time of recovery (healing)” and the clinical outcome (mosquito bites) was “an immediate relief from the itching sensation was felt”. For the same substance, the clinical outcome (radiation burns; person two after mastectomy, severe radiation burns, 500 μg/gr cream several times per day) was “felt immediate relief”, the clinical outcome (radiation burns; [2]) was “The therapeutic effect repeated itself after each treatment” and the “time to ease in the itching and burning sensation” value (radiation burns; [2]) was ~1 min. The “clinical outcome as compared to treatment with Zovirax®” value (Herpes simplex; person four, 50 μg/gr cream several times) was “Rapid drying of the lesion, shrinking of swelling and swift conclusion of the outbreak”, the clinical outcome (Herpes simplex; [3]) was “rapid drying of the lesion, as well as shortened scab formation” and the “time to reduction in the stinging/itching feeling” value (Herpes simplex; [3]) was 10 to 20 min. The clinical outcome (Herpes simplex; [4]) was “the development of the lesion was stopped, scab formation began and the stinging/itching feeling disappeared”, the “scab formation as compared to treatment with Zovirax®” value (Herpes simplex; [4]) was “shortened” and the clinical outcome (Herpes simplex; [5]) was “immediate reduction in the pricking sensation”. For the same substance, the “time until blisters disappeared” value (Herpes simplex; [5]) was 24 h, the clinical outcome (Herpes simplex; person, lips, 200 μg/gr cream at onset of pricking sensation or lesions) was “immediate relief; the disease did not develop further” and the clinical outcome (itching; [6]) was “The rash disappeared after several hours”. The “time to relief from itching” value (itching; [6]) was ≤ 10 min and the clinical outcome (itching; strong itching in lower limbs, 500 μg/gr cream as needed) was “immediate relief”.

Source: patent US9012397B2 (priority 2011, dated 2015)
